# Data taken from patent publication US7511144B2, “Reverse hydroxamic acid derivatives” (Kaken Pharmaceutical Co., Ltd., priority 2001, dated 2009).
# Like-named read-outs stand apart in the source and are kept apart here.
# Experiments:
# Type in all cases: biochemical
# Human MMP1 = molecular target: T1, Human MMP1 (Homo sapiens, UniProt P03956); assay: MMP1 inhibition experiment; details: read-out: IC50 value MMP-1
# T1 construct: purchased Calbiochem 444208
# T1 sequence (P03956 100-469): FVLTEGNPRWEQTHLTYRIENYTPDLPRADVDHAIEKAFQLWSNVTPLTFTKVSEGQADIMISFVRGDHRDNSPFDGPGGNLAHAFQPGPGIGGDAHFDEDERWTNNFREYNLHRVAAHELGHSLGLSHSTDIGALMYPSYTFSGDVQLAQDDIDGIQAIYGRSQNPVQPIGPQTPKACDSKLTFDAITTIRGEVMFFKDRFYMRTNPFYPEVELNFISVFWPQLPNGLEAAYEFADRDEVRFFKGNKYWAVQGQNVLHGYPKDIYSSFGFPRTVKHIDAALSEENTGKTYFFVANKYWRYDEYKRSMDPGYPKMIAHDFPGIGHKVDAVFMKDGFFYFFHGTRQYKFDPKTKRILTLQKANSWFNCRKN
# Human MMP3 = molecular target: T2, Human MMP3 (Homo sapiens, UniProt P08254); assay: MMP3 inhibition experiment; details: concentration required for 50% inhibition of enzyme activity; read-out: IC50 value MMP-3
# T2 construct: purchased Calbiochem 444217
# T2 sequence (P08254 100-272 limits assumed): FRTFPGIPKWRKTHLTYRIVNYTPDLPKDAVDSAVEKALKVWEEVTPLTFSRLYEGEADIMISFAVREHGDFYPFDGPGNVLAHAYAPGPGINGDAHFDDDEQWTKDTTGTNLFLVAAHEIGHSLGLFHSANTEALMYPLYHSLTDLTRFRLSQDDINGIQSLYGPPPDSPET
# Method: (§1) MMP inhibition experiment may be carried out using a fluorescent synthetic substrate according to, for example, the methods of Bickett et al. (D. Mark Bickett et al., Anal. Biochem., 1993, 212, 58-64) and Nagase et al. (H. Nagase et al., J. Biol. Chem., 1994, 269, 20952-20957). The methods of inhibition experiments carried out for various MMPs are described below.
# Human MMP3 (Calbiochem #444217) in 90 μL (5 ng) prepared in the assay buffer A was added to 90 μL of 20 μM fluorescent substrate NFF-3(MOCAc-Arg-Pro-Lys-Pro-Val-Glu-Nva-Trp-Arg-Lys(Dnp)-NH2, Peptide Institute, Inc., #3168-v) prepared in the assay buffer B, followed by reaction for 5 hours at 37° C.
# Human MMP13 = molecular target: T3, Human MMP13 (Homo sapiens, UniProt P45452); assay: MMP13 inhibition experiment; details: concentration required for 50% inhibition of enzyme activity; read-out: IC50 value MMP-13
# T3 construct: purchased Chemicon CC068
# Human MMP2 = molecular target: T4, Human MMP2 (Homo sapiens, UniProt P08253); assay: MMP2 inhibition experiment; details: concentration required for 50% inhibition of enzyme activity; read-out: IC50 value MMP-2
# T4 construct: purchased Calbiochem 444213
# T4 sequence (P08253 110-660): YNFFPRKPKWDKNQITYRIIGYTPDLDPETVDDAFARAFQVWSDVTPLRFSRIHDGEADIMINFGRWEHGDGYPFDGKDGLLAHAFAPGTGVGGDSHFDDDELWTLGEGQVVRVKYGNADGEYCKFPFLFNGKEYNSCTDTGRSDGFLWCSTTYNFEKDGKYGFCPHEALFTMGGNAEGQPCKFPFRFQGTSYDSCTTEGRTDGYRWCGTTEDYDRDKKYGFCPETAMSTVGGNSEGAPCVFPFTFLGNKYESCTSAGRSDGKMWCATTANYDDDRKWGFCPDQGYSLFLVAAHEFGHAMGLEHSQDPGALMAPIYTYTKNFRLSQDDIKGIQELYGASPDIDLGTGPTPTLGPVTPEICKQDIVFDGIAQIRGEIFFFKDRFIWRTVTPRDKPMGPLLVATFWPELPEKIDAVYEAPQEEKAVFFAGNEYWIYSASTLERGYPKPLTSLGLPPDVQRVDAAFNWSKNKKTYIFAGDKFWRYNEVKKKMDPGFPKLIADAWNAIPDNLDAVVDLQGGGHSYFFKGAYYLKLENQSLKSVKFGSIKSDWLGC
# Human MMP8 = molecular target: T5, Human MMP8 (Homo sapiens, UniProt P22894); assay: MMP8 inhibition experiment; details: concentration required for 50% inhibition of enzyme activity; read-out: IC50 value MMP-8
# T5 construct: purchased Calbiochem 444229
# T5 sequence (P22894 101-467): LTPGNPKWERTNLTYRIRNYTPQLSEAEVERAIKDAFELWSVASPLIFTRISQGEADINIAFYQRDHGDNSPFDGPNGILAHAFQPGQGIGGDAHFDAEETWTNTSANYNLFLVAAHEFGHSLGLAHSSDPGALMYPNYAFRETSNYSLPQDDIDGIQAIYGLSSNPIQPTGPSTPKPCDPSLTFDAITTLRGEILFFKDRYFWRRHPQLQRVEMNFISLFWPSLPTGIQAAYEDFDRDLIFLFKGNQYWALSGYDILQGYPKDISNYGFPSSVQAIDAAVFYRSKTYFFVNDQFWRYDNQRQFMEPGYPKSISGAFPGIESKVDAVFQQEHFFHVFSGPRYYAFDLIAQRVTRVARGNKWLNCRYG
# Method: as §1
# Human MMP8 (Calbiochem #444229) in amount of 90 μL (30 ng) was activated by mixing with 10 μL of 10 mM APMA, followed by reaction for 1 hour at 37° C. This enzyme solution in amount of 10 μL was diluted to 90 μL with the assay buffer A, which was added to 90 μL of […] fluorescent substrate (MOCAc-Pro-Leu-Gly-Leu-A2pr(Dnp)-Ala-Arg-NH2, Peptide Institute, Inc., #3163-v) prepared in the assay buffer B, followed by reaction for 5 hours at 37° C.
# Human MMP14 = molecular target: T6, Human MMP14 (Homo sapiens, UniProt P50281); assay: MMP14 inhibition experiment; details: concentration required for 50% inhibition of enzyme activity; read-out: IC50 value MMP-14
# T6 construct: purchased Biogenesis or Calbiochem 5980-1461 or 475935
# Method: as §1
# Human MMP14 (Biogenesis #5980-1461 or Calbiochem #475935) in amount of 90 μL (4 ng) prepared in the assay buffer A was added to 90 μL of 20 μM fluorescent substrate (Dnp-Pro-Cha-Gly-Cys(Me)-His-Ala-Lys(Nma)-NH2) prepared in the assay buffer B, followed by reaction for 5 hours at 37° C.
# Human MMP17 = molecular target: T7, Human MMP17 (Homo sapiens, UniProt Q9ULZ9); assay: MMP17 inhibition test; details: concentration required for 50% inhibition of enzyme activity; read-out: IC50 value MMP-17
# T7 construct: purchased Calbiochem 475940
# T7 sequence (Q9ULZ9 126-300 limits assumed): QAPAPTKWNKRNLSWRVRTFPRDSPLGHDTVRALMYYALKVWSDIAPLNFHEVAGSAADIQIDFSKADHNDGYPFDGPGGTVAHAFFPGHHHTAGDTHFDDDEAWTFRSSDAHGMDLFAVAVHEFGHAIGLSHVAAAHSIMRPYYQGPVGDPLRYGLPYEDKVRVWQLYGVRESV
# Human MMP9 = molecular target: T8, Human MMP9 (Homo sapiens, UniProt P14780); assay: MMP9 inhibition experiment; details: read-out: IC50 value MMP-9
# T8 construct: purchased Calbiochem 444231
# T8 sequence (P14780 107-707 limits assumed): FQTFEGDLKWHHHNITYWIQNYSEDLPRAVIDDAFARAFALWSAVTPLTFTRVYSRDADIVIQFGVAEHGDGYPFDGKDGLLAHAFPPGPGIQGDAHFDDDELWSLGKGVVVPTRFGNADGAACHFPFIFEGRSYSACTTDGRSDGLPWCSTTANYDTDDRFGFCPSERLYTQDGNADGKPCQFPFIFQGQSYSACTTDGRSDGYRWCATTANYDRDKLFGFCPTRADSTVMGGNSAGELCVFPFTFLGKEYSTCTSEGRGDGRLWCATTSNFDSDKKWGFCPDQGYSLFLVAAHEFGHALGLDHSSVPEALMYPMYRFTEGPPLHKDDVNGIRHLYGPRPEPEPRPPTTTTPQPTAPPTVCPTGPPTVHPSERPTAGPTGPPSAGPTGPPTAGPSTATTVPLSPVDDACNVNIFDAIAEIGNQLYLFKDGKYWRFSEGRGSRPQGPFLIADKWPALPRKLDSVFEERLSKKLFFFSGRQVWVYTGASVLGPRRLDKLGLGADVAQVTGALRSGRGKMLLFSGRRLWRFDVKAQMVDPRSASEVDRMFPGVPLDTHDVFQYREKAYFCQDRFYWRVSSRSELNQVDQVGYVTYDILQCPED
# TACE = molecular target: T9, TACE (Homo sapiens, UniProt P78536); assay: TACE inhibition experiment (in vitro)
# T9 construct: made in house; host or cells: mammalian cells or insect cells
# T9 sequence (P78536 215-824): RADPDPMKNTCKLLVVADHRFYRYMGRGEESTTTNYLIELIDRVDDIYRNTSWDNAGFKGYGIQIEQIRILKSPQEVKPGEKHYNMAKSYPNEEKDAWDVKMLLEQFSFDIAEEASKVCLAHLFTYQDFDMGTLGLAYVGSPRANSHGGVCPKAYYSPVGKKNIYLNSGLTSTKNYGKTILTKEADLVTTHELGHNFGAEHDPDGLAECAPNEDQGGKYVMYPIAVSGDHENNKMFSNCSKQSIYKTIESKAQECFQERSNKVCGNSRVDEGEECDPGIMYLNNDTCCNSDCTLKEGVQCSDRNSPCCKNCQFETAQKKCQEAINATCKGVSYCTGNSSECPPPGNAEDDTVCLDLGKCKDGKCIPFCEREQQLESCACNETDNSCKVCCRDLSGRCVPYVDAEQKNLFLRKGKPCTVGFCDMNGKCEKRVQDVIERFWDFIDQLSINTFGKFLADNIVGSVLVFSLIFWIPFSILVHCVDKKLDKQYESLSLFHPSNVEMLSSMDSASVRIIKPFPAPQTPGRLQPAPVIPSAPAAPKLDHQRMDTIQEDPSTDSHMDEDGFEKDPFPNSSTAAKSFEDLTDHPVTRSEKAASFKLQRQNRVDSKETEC
# [1] = concentration required for 50% inhibition of enzyme activity
IC50 (Human MMP1) [µM],IC50 (Human MMP3) [µM],IC50 (Human MMP13) [µM],IC50 (Human MMP2) [µM],IC50 (Human MMP8) [µM],IC50 (Human MMP14) [µM],IC50 (Human MMP17) [µM],IC50 (Human MMP9) [µM],IC50 (Human MMP1; [1]) [µM],IC50 (Human MMP9; [1]) [µM],IC50 (TACE) [µM],IC50 (TACE; [1]) [µM],SMILES
> 100,4.2,32,28,23,77,2.2,> 100,–,–,–,–,"Cc1cc(COc2ccc(S(=O)(=O)CC(C=C3CCOCC3)N(O)C=O)cc2)c2ccccc2n1 (single isomer, unassigned) [Example I-33, N-hydroxy-N-{2-[4-(2-methylquinolin-4-ylmethoxy)benzenesulfonyl]-1-(tetrahydropyran-4-ylidenemethyl)ethyl}formamide]"
–,> 100,> 100,> 100,> 100,> 100,40,–,> 100,> 100,–,–,"Cc1cc(COc2ccc(S(=O)(=O)CC(C=C3CCOCC3)N(O)C=O)cc2)c2ccccc2n1 (single isomer, unassigned) [Example I-34, N-hydroxy-N-{2-[4-(2-methylquinolin-4-ylmethoxy)benzenesulfonyl]-1-(tetrahydropyran-4-ylidenemethyl)ethyl}formamide]"
> 100,5.5,25,60,37.5,70,3,–,–,53,–,–,"Cc1cc(COc2ccc(S(=O)(=O)CC(C=C3CCOCC3)N(O)C=O)cc2)c2ccccc2n1 (centres unmarked) [Example I-9, N-Hydroxy-N-{2-[4-(2-methylquinolin-4-ylmethoxy)benzenesulfonyl]-1-(tetrahydropyran-4-ylidenemethyl)ethyl}formamide]"
> 100,9,30,38,60,70,3.5,> 100,–,–,0.0055,–,CC(=C1CCOCC1)C(CS(=O)(=O)c1ccc(OCc2cc(C)nc3ccccc23)cc1)N(O)C=O (centres unmarked) [Example I-15]
43,10,25,55,> 100,50,4,–,–,31,–,0.003,"Cc1cc(COc2ccc(S(=O)(=O)CC(C=C3CCSCC3)N(O)C=O)cc2)c2ccccc2n1 (centres unmarked) [Example I-17, N-Hydroxy-N-{2-[4-(2-methylquinolin-4-ylmethoxy)benzenesulfonyl]-1-(tetrahydrothiopyran-4-ylidenemethyl)ethyl}formamide]"
65,0.65,3.5,3.3,24.5,20,0.6,10,–,–,0.004,–,Cc1cc(COc2ccc(S(=O)(=O)CC(C=C3CCN(C(=O)OC(C)(C)C)CC3)N(O)C=O)cc2)c2ccccc2n1 (centres unmarked) [Example I-18]
35,0.05,0.6,0.63,2.65,3.8,0.045,9,–,–,0.0022,–,Cc1cc(COc2ccc(S(=O)(=O)CC(C=C3CCN(C(=O)c4ccccc4)CC3)N(O)C=O)cc2)c2ccccc2n1 (centres unmarked) [Example I-21]
60,7.3,21,40,59.5,42,3.5,53,–,–,0.0042,–,Cc1cccc(C(CS(=O)(=O)c2ccc(OCc3cc(C)nc4ccccc34)cc2)N(O)C=O)c1 (centres unmarked) [Example I-22]
40,0.11,0.7,1.3,5,20,0.12,8,–,–,0.01,–,"Cc1cc(COc2ccc(S(=O)(=O)CC(C=C3CCN(C(=O)C(C)(C)C)CC3)N(O)C=O)cc2)c2ccccc2n1 (centres unmarked) [Example I-25, N-{1-[1-(2,2-Dimethylpropionyl)piperidin-4-ylidenemethyl]-2-[4-(2-methylquinolin-4-ylmethoxy)benzenesulfonyl]ethyl}-N-hyroxyformamide]"
50,–,–,–,8,30,–,–,–,–,–,–,Cc1cc(COc2ccc(S(=O)(=O)CC(CC3CCC(=NO)CC3)N(O)C=O)cc2)c2ccccc2n1 (centres unmarked) [Example I-27]
> 100,78,28,6.6,> 100,90,42,–,–,–,0.55,–,O=CN(O)C(C=C1CCC(=O)CC1)CS(=O)(=O)c1ccc(OCc2ccc3ccccc3n2)cc1 (centres unmarked) [Example I-84]
> 100,> 100,> 100,> 100,–,> 100,> 100,> 100,–,–,0.63,–,"Cc1cc(COc2ccc(S(=O)(=O)CC(C=C3CCSCC3)N(O)C(N)=O)cc2)c2ccccc2n1 (centres unmarked) [Example I-125, 1-hydroxy-1-{2-[4-(2-methylquinolin-4-ylmethoxy)benzenesulfonyl]-1-(tetrahydrothiopyran-4-ylidenemethyl)ethyl}urea]"
> 100,12,70,> 100,–,> 100,6.3,> 100,–,–,0.31,–,"CC(=O)N(O)C(C=C1CCSCC1)CS(=O)(=O)c1ccc(OCc2cc(C)nc3ccccc23)cc1 (centres unmarked) [Example I-126, N-hydroxy-N-{2-[4-(2-methylquinolin-4-ylmethoxy)benzenesulfonyl]-1-(tetrahydrothipyran-4-ylidenemethyl)ethyl}acetamide]"
> 100,1.7,25,28,18,–,0.9,> 100,–,–,0.026,–,CC(=O)N1CCCC(C(CS(=O)(=O)c2ccc(OCc3cc(C)nc4ccccc34)cc2)N(O)C=O)C1 (centres unmarked) [Example I-133]
